pIC50: −log10 of the molar value.
Columns and labels:
Mus musculus [1] = experiment: Protective index [PI = TD50/ED50 (from clonic phase of the audiogenic seizures)] in mice at 3.3-200 umol/kg, ip; assay type: functional
[2] = target: T1, Glutamate receptor ionotropic, AMPA (Rattus norvegicus, UniProt P19490+P19491+P19492+P19493); experiment: Displacement of [3H]CP-526427 from AMPA receptor in rat forebrain membranes; assay type: cell membranes, Membrane
[3] = target: T1, Glutamate receptor ionotropic, AMPA; experiment: Ability to inhibit kainate-induced increase of calcium in rat cerebellar granule cells expressing AMPA receptor; assay type: functional
Mus musculus [4] = experiment: Effect on clonic phase of audiogenic seizures in DBA/2 mice at 3.3-200 umol/kg, ip; assay type: functional; conditions: DBA/2, ip
Mus musculus [5] = experiment: Effect on tonic phase of audiogenic seizures in DBA/2 mice at 3.3-200 umol/kg, ip; assay type: functional; conditions: DBA/2, ip
Mus musculus [6] = experiment: Effect on locomotion in mice assessed by rotarod test at 3.3-200 umol/kg, ip; assay type: functional
[7] = target: Glutamate receptor ionotropic, kainate 1 (Rattus norvegicus, UniProt P22756); experiment: Ability to inhibit domoic acid-induced increase of calcium in rat HEK293 cells expressing GluR5; assay type: functional, cell-based
Sequence of Glutamate receptor ionotropic, kainate 1 (P22756 whole entry): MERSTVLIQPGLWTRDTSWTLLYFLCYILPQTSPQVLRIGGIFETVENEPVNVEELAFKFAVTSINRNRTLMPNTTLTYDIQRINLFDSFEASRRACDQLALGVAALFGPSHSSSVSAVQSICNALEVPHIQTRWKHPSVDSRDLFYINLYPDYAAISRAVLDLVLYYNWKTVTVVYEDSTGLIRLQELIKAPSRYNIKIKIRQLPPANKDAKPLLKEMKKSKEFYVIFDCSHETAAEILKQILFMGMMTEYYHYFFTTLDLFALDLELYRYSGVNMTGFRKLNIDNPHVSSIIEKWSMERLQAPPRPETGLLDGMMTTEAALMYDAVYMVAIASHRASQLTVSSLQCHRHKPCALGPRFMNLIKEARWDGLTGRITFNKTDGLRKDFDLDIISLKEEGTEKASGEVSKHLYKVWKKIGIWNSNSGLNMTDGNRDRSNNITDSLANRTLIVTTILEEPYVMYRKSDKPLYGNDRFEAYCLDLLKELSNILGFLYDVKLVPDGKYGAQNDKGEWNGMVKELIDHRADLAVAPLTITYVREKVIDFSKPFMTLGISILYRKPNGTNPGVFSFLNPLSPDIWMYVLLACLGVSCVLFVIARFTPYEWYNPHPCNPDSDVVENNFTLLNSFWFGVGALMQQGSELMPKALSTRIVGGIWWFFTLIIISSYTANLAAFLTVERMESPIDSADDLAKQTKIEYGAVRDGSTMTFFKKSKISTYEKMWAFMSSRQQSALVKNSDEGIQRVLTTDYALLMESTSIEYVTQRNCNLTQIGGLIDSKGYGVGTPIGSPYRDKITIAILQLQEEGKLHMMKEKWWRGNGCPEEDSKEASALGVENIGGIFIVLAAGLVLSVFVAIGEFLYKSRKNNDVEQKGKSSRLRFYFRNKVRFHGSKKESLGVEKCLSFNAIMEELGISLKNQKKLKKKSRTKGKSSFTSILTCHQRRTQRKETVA

Structure (SMILES) | pIC50 [2] | pIC50 [3] | pIC50 [7] | Ratio TD50/ED50 (Mus musculus [1]) | ED50 (Mus musculus [4]) | ED50 (Mus musculus [5]) | TD50 (Mus musculus [6])
Nc1ccc(C2=NNC(=O)Cc3cc4c(cc32)OCCO4)c(Cl)c1 | < 4.70 | – | – | – | > 100 µmol/kg | > 100 µmol/kg | –
CC1=NN=C(c2ccc(N)cc2)c2cc3c(cc2C1)OCO3 [GYKI-52466] | – | – | – | 2.1 | – | – | –
Nc1ccc(C2=NNC(=O)Cc3cc4c(cc32)OCCO4)cc1Cl | 5.70 | – | – | 1.4 | 70.8 µmol/kg | 27.2 µmol/kg | 99.1 µmol/kg
CNC(=O)N1N=C(c2ccc(N)cc2)c2cc3c(cc2CC1=O)OCO3 | – | – | – | 3.9 | – | – | –

The next lines start with results.

pIC50 [2] | pIC50 [3] | pIC50 [7] | Structure (SMILES) | Ratio TD50/ED50 (Mus musculus [1]) | ED50 (Mus musculus [4]) | ED50 (Mus musculus [5]) | TD50 (Mus musculus [6])
4.92 | 4.96 | – | CCNC(=O)N1N=C(c2ccc(N)cc2)c2cc3c(cc2CC1=O)OCO3 | 3.8 | – | – | –
– | 4.92 | – | Nc1ccc(C2=NNC(=O)Cc3cc4c(cc32)OCO4)cc1 | 4.5 | – | – | –
5.03 | – | – | CCNC(=O)N1N=C(c2ccc(N)cc2)c2cc3c(cc2CC1=O)OCCO3 | 2 | 48.1 µmol/kg | 41.7 µmol/kg | 95.3 µmol/kg
– | 5.54 | < 5.00 | Nc1ccc(C2=NNC(=O)Cc3cc4c(cc32)OCCO4)cc1 | 1.7 | 61.3 µmol/kg | 44.8 µmol/kg | 102 µmol/kg
– | 5.27 | – | CNC(=O)N1N=C(c2ccc(N)cc2)c2cc3c(cc2CC1=O)OCCO3 | 2.1 | 45.5 µmol/kg | 32.1 µmol/kg | 96.4 µmol/kg
5.74 | – | – | Cc1cc(C2=NNC(=O)Cc3cc4c(cc32)OCCO4)ccc1N | 2.4 | 48.2 µmol/kg | 24.6 µmol/kg | 115 µmol/kg

Reference: ChEMBL document CHEMBL1148548, “New 7,8-ethylenedioxy-2,3-benzodiazepines as noncompetitive AMPA receptor antagonists” (Bioorg Med Chem Lett, 2006)
